Experimental data published in patent US20230348426A1, “OXOPYRROLIDINE FPR2 AGONISTS” (Bristol-Myers Squibb Company, priority 2020, published 2023).

How the values were obtained:
[1] = target: human FPR1 (Homo sapiens (Human), UniProt P21462); assay: FPR1 cyclic adenosine monophosphate (cAMP) assay; type: cell-based; conditions: CHO cells overexpressing human FPR1; forskolin 10 µM; inhibition of cAMP production; read-out: hFPR1 cAMP EC50
Procedure, shortened: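 Human FPR1-expressing CHO cells were used at 4,000 per well, with compound at 0.020 nM–100 µM in 1% DMSO. Potency came from a 4-parameter logistic fit.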

[2] = target: human FPR2 (Homo sapiens (Human), UniProt P25090); assay: FPR2 cyclic adenosine monophosphate (cAMP) assay; type: cell-based; conditions: CHO cells overexpressing human FPR2; forskolin 5 µM; inhibition of cAMP production; read-out: hFPR2 cAMP2 EC50
Procedure, shortened: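 Inhibition of forskolin-driven (5 µM) cAMP, with 200 µM IBMX, measured in human FPR2-expressing CHO cells, 2,000 per well, 30 min at room temperature; compounds tested 0.020 nM to 100 µM in 1% DMSO. HTRF 665/590 ratio converted to cAMP via calibration curve, then 4-parameter fit.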

human FPR1, sequence (P21462 whole entry): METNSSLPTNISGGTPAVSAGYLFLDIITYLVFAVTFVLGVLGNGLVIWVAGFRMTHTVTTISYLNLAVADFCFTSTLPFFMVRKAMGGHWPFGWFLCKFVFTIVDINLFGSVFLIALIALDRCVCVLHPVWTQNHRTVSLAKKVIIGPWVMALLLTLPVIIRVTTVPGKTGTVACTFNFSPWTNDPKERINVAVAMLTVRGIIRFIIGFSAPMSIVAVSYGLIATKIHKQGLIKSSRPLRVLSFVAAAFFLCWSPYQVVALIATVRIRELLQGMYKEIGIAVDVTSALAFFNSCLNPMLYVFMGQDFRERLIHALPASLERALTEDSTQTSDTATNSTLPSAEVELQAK
human FPR2, sequence (P25090 whole entry): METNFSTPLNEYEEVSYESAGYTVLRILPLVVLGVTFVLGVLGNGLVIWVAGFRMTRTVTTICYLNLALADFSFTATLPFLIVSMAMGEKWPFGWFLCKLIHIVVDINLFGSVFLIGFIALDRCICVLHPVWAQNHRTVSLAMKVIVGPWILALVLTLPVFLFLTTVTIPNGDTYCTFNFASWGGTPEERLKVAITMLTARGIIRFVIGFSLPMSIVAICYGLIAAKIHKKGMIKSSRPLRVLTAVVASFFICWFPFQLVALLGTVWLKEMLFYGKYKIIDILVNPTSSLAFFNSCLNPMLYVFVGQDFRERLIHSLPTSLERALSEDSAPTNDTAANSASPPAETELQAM

SMILES | EC50 [1] [nM] | EC50 [2] [nM]
COc1cc(N2C[C@@H]3C[C@H]2CO3)nc(N2C(=O)[C@@H](NC(=O)c3ccc(OC(F)(F)F)cc3)[C@H](c3c(F)cc(OC)cc3F)[C@@H]2C)c1 [Example 552] | 440 | 130
COCC(C(=O)N1CCOCC1)n1cccc(N2C[C@@H](c3ccc(OC)cc3)[C@H](NC(=O)c3ccc(OC(F)F)cc3)C2=O)c1=O (some centres unmarked) [Example 441] | 3 | 5.2
Cc1ccn(CC(F)F)c(=O)c1N1C[C@@H](c2ccc(Cl)cc2)[C@H](NC(=O)c2ccc(OC(F)F)cc2)C1=O [Example 415] | 3 | 6.8
COc1ccc([C@@H]2CN(c3c(C)ccn(CCO)c3=O)C(=O)[C@H]2NC(=O)c2ccc(OC(F)(F)F)cc2)cc1 [Example 108] | 0.4 | 2.9
COc1cc(F)c([C@@H]2CN(c3nc(N4CCOCC4=O)ccc3F)C(=O)[C@H]2NC(=O)c2ccc(OC(F)(F)F)cc2)c(F)c1 [Example 58] | 3.5 | 1.5
CCn1cc(C)c(C)c(N2C[C@@H](c3c(F)cc(OC)cc3F)[C@H](NC(=O)c3ccc(OC(F)F)cc3)C2=O)c1=O [Example 642] | 570 | 15
COc1ccc([C@@H]2CN(c3cccn(CC(O)C(F)(F)F)c3=O)C(=O)[C@H]2NC(=O)c2ccc(OC(F)(F)F)cc2)cc1 (some centres unmarked) [Example 657] | 45 | 2
COc1cc(F)c([C@@H]2CN(c3c(C)ccn(C(F)(F)CO)c3=O)C(=O)[C@H]2NC(=O)c2ccc(OC(F)F)cc2)c(F)c1 [Example 454] | 17 | 4.4
COc1cc(F)c([C@@H]2CN(c3nccc(NCC4CCCO4)c3C(F)(F)F)C(=O)[C@H]2NC(=O)c2ccc(Cl)cc2)c(F)c1 (some centres unmarked) [Example 447] | 2800 | 4.7
CCn1cncc(N2C[C@@H](c3c(F)cc(OC)cc3F)[C@H](NC(=O)c3ccc(Cl)cc3)C2=O)c1=O [Example 378] | 3800 | 4.6
COc1cc(C2CC2)nc(N2C[C@@H](c3c(F)cc(OC)cc3F)[C@H](NC(=O)c3ccc(OC(F)F)cc3)C2=O)c1 [Example 589] | 2600 | 130
COc1cc(F)c([C@@H]2CN(c3cncn(CC(C)O)c3=O)C(=O)[C@H]2NC(=O)c2ccc(OC(F)F)cc2)c(F)c1 (some centres unmarked) [Example 467] | 1500 | 1.8
COc1ccc([C@@H]2CN(c3cccn(CC(OC)C(F)(F)F)c3=O)C(=O)[C@H]2NC(=O)c2ccc(OC(F)(F)F)cc2)c(F)c1 (some centres unmarked) [Example 364] | 1 | 2.3
COCC(CO)n1cccc(N2C[C@@H](c3ccc(OC)cc3)[C@H](NC(=O)c3ccc(Cl)cc3)C2=O)c1=O (some centres unmarked) [Example 411] | 120 | 2.6
COc1cc(F)c([C@@H]2CN(c3cncn(CC4CCOCC4)c3=O)C(=O)[C@H]2NC(=O)c2ccc(Cl)cc2)c(F)c1 [Example 547] | 2400 | 4.5
COc1cc(F)c([C@@H]2CN(c3cc(NC(C)=O)cn(C)c3=O)C(=O)[C@H]2NC(=O)c2ccc(Cl)cc2)c(F)c1 [Example 299] | 1900 | 9.2
COc1cc(F)c([C@@H]2CN(c3cccc(N4C[C@@H](C)N(C)[C@@H](C)C4)n3)C(=O)[C@H]2NC(=O)c2ccc(OC(F)F)cc2)c(F)c1 [Example 48] | 940 | 1.1
COc1cc(F)c([C@@H]2CN(c3nccc(N4C[C@@H](C)N(C)[C@@H](C)C4)c3C(F)(F)F)C(=O)[C@H]2NC(=O)c2ccc(Cl)cc2)c(F)c1 [Example 181] | 990 | 4.8
COc1ccc([C@@H]2CN(c3cccn(CC(O)C(F)(F)F)c3=O)C(=O)[C@H]2NC(=O)c2ccc(OC(F)(F)F)cc2)cc1 (some centres unmarked) [Example 656] | 13 | 2.5
COc1cc(F)c([C@@H]2CN(c3c(C)ccn(CC(F)F)c3=O)C(=O)[C@H]2NC(=O)c2ccc(Cl)cc2)c(F)c1 [Example 421] | 15 | 3.3
COCCn1cccc(N2C[C@@H](c3c(F)cc(OC)cc3F)[C@H](NC(=O)c3ccc(OC(F)(F)F)cc3)C2=O)c1=O [Example 37] | 16 | 8.9
COc1cc(F)c([C@@H]2CN(c3nc(N(C)C(C)=O)ccc3F)C(=O)[C@H]2NC(=O)c2ccc(OC(F)(F)F)cc2)c(F)c1 [Example 114] | 5.9 | 3
COCCn1cccc(N2C[C@@H](c3ccc(OC)cc3F)[C@H](NC(=O)c3ccc(OC(F)F)cc3)C2=O)c1=O [Example 81] | 2.7 | 2.2
COCC(CO)n1cccc(N2C(=O)[C@@H](NC(=O)c3ccc(OC(F)(F)F)cc3)[C@H](c3c(F)cc(OC)cc3F)[C@@H]2C)c1=O (some centres unmarked) [Example 175] | 9.3 | 4.6
COc1cc(F)c([C@@H]2CN(c3cccnc3OCCN3CC4(COC4)C3)C(=O)[C@H]2NC(=O)c2ccc(OC(F)F)cc2)c(F)c1 [Example 202] | 62 | 5.3

SMILES | EC50 [1] [nM] | EC50 [2] [nM]
COc1cc(F)c([C@@H]2CN(c3nccc(N4C[C@@H]5C[C@H]4CN5C)c3C#N)C(=O)[C@H]2NC(=O)c2ccc(Cl)cc2)c(F)c1 [Example 160] | 1100 | 4.1
COCC(CO)n1nccc(N2C[C@@H](c3c(F)cc(OC)cc3F)[C@H](NC(=O)c3ccc(OC(F)F)cc3)C2=O)c1=O (some centres unmarked) [Example 476] | 14 | 1.7
COc1cc(F)c([C@@H]2CN(c3nc(N4CC(C)OCC4=O)ccc3F)C(=O)[C@H]2NC(=O)c2ccc(OC(F)(F)F)cc2)c(F)c1 (some centres unmarked) [Example 124] | 47 | 3.3
COc1cc(F)c([C@@H]2CN(c3ncccc3F)C(=O)[C@H]2NC(=O)c2ccc(OC(F)(F)F)cc2)c(F)c1 [Example 28] | 1100 | 7
COc1cc(F)c([C@@H]2CN(c3nccc(NC4COC4)c3C(F)(F)F)C(=O)[C@H]2NC(=O)c2ccc(Cl)cc2)c(F)c1 [Example 327] | 1700 | 12
COCCOc1ncccc1N1C[C@@H](c2c(F)cc(OC)cc2F)[C@H](NC(=O)c2ccc(OC(F)F)cc2)C1=O [Example 412] | 93 | 7.6
COc1cc(F)c([C@@H]2CN(c3nc(C)ccc3C(F)(F)F)C(=O)[C@H]2NC(=O)c2ccc(OC(F)F)cc2)c(F)c1 [Example 247] | 250 | 6.9
COc1cc(F)c([C@@H]2CN(c3cccn4c(C)nnc34)C(=O)[C@H]2NC(=O)c2ccc(OC(F)(F)F)cc2)c(F)c1 [Example 604] | 15 | 0.5
COc1cc(F)c([C@@H]2CN(c3cccn(CCN4CCOCC4)c3=O)C(=O)[C@H]2NC(=O)c2ccc(OC(F)F)cc2)c(F)c1 [Example 99] | 330 | 2.7
COc1cc(F)c([C@@H]2CN(c3c(C)ccn(CCC(F)(F)F)c3=O)C(=O)[C@H]2NC(=O)c2ccc(Cl)cc2)c(F)c1 [Example 430] | 5 | 3.3
CCn1cc(F)cc(N2C[C@@H](c3c(F)cc(OC)cc3F)[C@H](NC(=O)c3ccc(OC(F)F)cc3)C2=O)c1=O [Example 205] | 220 | 5.4
COc1cc(F)c([C@@H]2CN(c3nc(NC4CCOC4)ccc3F)C(=O)[C@H]2NC(=O)c2ccc(OC(F)(F)F)cc2)c(F)c1 (some centres unmarked) [Example 84] | 120 | 2.3
COc1cc(F)c([C@@H]2CN(c3c(C)ccn(CC4CCO4)c3=O)C(=O)[C@H]2NC(=O)c2ccc(Cl)cc2)c(F)c1 (some centres unmarked) [Example 618] | 9.5 | 1
COCCn1cccc(N2C(=O)[C@@H](NC(=O)c3ccc(Cl)cc3)[C@H](c3c(F)cc(OC)cc3F)[C@@H]2C)c1=O [Example 74] | 94 | 1.9
COc1cc(F)c([C@@H]2CN(c3c(C)ccn(CC#N)c3=O)C(=O)[C@H]2NC(=O)c2ccc(OC(F)(F)F)cc2)c(F)c1 [Example 455] | 10 | 2.9
COCC(C(=O)N(C)C)n1cccc(N2C[C@@H](c3ccc(OC)cc3F)[C@H](NC(=O)c3ccc(OC(F)F)cc3)C2=O)c1=O (some centres unmarked) [Example 428] | 8 | 9
COc1cc(F)c([C@@H]2CN(c3nc(C(C)(C)O)ccc3F)C(=O)[C@H]2NC(=O)c2ccc(Cl)cc2)c(F)c1 [Example 313] | 5400 | 10
COc1cc(F)c([C@@H]2CN(c3c(C)ccn(CC(C)O)c3=O)C(=O)[C@H]2NC(=O)c2ccc(OC(F)F)cc2)c(F)c1 (some centres unmarked) [Example 360] | 18 | 3.2
COc1cc(F)c([C@@H]2CN(c3ccn(CC(F)F)n3)C(=O)[C@H]2NC(=O)c2ccc(OC(F)(F)F)cc2)c(F)c1 [Example 662] | 14 | 4
COc1cc(F)c([C@@H]2CN(c3nc(C4CCNCC4)ccc3C(F)(F)F)C(=O)[C@H]2NC(=O)c2ccc(OC(F)F)cc2)c(F)c1 [Example 270] | 180 | 7.8
COc1cc(F)c([C@@H]2CN(c3nc(C4CCN(CC(F)F)CC4)ccc3F)C(=O)[C@H]2NC(=O)c2ccc(OC(F)F)cc2)c(F)c1 [Example 549] | 28 | 4.1
COc1cc(F)c([C@@H]2CN(c3c(C)ccn(C4CCS(=O)(=O)C4)c3=O)C(=O)[C@H]2NC(=O)c2ccc(OC(F)(F)F)cc2)c(F)c1 (some centres unmarked) [Example 702] | 7.5 | 8.5
COCCn1cccc(N2C[C@@H](c3c(F)cc(OC)cc3F)[C@H](NC(=O)c3ccc(C(F)(F)F)cc3)C2=O)c1=O [Example 277] | 210 | 8
COc1cc(F)c([C@@H]2CN(c3c(C)ccn(CC4CCOC4)c3=O)C(=O)[C@H]2NC(=O)c2ccc(OC(F)(F)F)cc2)c(F)c1 (some centres unmarked) [Example 697] | 6.7 | 3.6
